Test results as given in US7939091B2, “Biorational repellents obtained from terpenoids for use against arthropods” (Iowa State University Research Foundation, Inc., priority 1999, dated 2011).

Key:
[1] = system: German cockroach (Blattella germanica); experiment: Choice test arena repellency bioassay, adult male German cockroach, 300-second test; type: in vivo; conditions: for Mean Treated / Mean Untreated: 300-second test; for % repellency: (untreated − treated/300)*100
Procedure: Test Procedure. Repellency bioassays were conducted to assess the repellent properties of compositions containing catnip steam distillate (nepetalactone), Z,E-nepetalactone, E,Z-nepetalactone and DEET against cockroaches. Certified acetone and certified hexane were also tested in order to evaluate solvent effects. (DEET was dissolved in acetone, because DEET is insoluble in hexane. The tested compounds were dissolved in hexane because hexane was the solvent used to extract these compounds from the distillate). One Whatman 125-mm round filter paper was cut in half. One side was treated with one (1) ml of the test compound and the other side was treated with one (1) ml of solvent. The papers were allowed to dry in a fume hood for approximately two (2) minutes before being placed in a 150-mm Petri dish arena. The relative position of the treated side (i.e., to the right or left) of the dish was randomized using a random number table. […] The hole was stopped using a small piece of tape to prevent the insect from escaping. One adult male German cockroach (Blattella germanica) was selected from the colony and dropped into the pre-formed hole in the Petri dish lid. […] Ten (10) replications were performed for each test compound. Results. Using mean values and their related Standard Error of the Mean values (SEM), repellency of the selected samples was determined as shown in Table 2. Significance due to concentration was determined using ANOVA. […] Comparisons between test compounds were made using a two-tailed paired t-test (“paired t-test”) which indicates “differences” as is known in the art and shown in Table 4 (as compared with a “one-tailed” test, which indicates “greater or less than”). Testing Procedure. The same procedure described in Example 1 was used.

[2] = system: yellow fever mosquitoes, Aedes aegypti; experiment: Static-air repellency chamber, spatial and contact repellency, adult female yellow fever mosquitoes; type: in vivo; conditions: application rate 78.6 μg/cm^2
Procedure: Test Equipment. In this testing, a static air repellency chamber was used. The apparatus consisted of a 9×60-cm section of glass tubing with a 2-cm hole drilled at the midpoint along the length for central introduction of the insects. All of the testing was conducted in an environmental chamber at ambient temperatures.
Test Methods. The data for spatial repellency was collected at 15 minutes after the introduction of female yellow fever mosquitoes into a static air repellency chamber. Data for the contact repellency was collected after three hours. The concentrations used in the tests are 1% solution (1 ml of it on a 9-cm diameter filter paper). One (1) ml of a 1% (wt/vol) solution of repellent substance containing hexane as a carrier was pipetted onto a 9-cm diameter filter paper results in a concentration of 157 μg/cm^2. The solution contained the desired mass of compound to be tested added to the desired volume of hexane, e.g., for a 1% solution of catnip essential oil, […] was added to 100 ml of hexane.
One milliliter of the solution was applied to one half of a 9-cm diameter round filter paper with an area of 63.6 cm^2 and then allowed to dry before testing. […] Treated filter papers were placed inside the lids of 9-cm glass petri dishes, and placed over the ends of the glass tube. The position of the treated side, to the right or to the left, was selected by using a random-number table. Approximately fifteen unmated adult female mosquitoes were anaesthetized with CO2 and then introduced to the 9×60-cm glass cylinder through the centered 2-cm hole. Timing began 2 minutes after mosquito introduction, and mosquito distribution inside the static-air choice-test apparatus was observed over a 15-minute period for each treatment to determine spatial repellency. Basically the number of mosquitoes in the non-treated half were considered to be repelled and were counted. Percent repellency was considered to be: (Number of Individuals on Untreated Half−Number of Individuals on Treated Half)/15)×100. Contact repellency was defined in this assay as 100% avoidance of the treated filter paper-after three hours. The experimental design was a completely randomized design using six replications of each treatment.
All test methods were the same as described in Example 7, except spatial repellency over a longer period.
Test Methods. […] Also only three replications were used instead of six.

[3] = system: German cockroach, Blattella germanica; experiment: Choice-test arena bioassay (contact irritancy), German cockroach, Example 6; type: in vivo; conditions: 300-second period
Procedure: (§1) A choice-test arena was used to assess irritancy of test solutions to two common household insect pests, the German cockroach (Blattella germanica) and the house fly (Musca domestica). Catnip essential oil obtained by steam distillation of catnip obtained from the same source as described in the above examples, and the two major components of its essential oil, Z,E-nepetalactone and E,Z-nepetalactone (isolated from the essential oil by preparative TLC), were evaluated for behavioral effects of contact irritancy to the German cockroach. The TLC was performed as described in McElvain, S. M. et al., J. Am. Chem. Soc., 1941, 63, 1558-1563. Catnip essential oil and its major constituent Z,E-nepetalactone were tested against the house fly. N,N-diethyl-m-toluamide (DEET) (Aldrich, St. Louis, Mo.) served as a positive control for the choice-test arena assay and as a point of comparison for measuring insect behavioral effects that result from current commercial insect repellents. Test solutions ranging from 10% to 0.1% (vol/vol) active ingredient (a.i.) were made up in acetone and then delivered on to a filter paper for solvent evaporation. […] Choice-test are for German cockroaches and house flies were constructed from plastic Petri dishes. One-half of a 12.5-cm dia. filter paper was treated with 1 ml test solution, and the other was treated with 1 ml of only solvent (control). Both halves of the filter paper were placed in the choice-test arena. Position of the treated filter paper was randomized using a random-number table.
(§2) Individual German cockroaches or house flies were placed in each choice-test arena through a centered hole in the lid of the Petri dish and evaluated for a 300-second period. The amount of time the insect spent on the treated and untreated filter papers were recorded and used to calculate a percentage repellency value: Percentage Repellency=((Time on Untreated-Time on Treated)/300)×100
(§3) Ten replicates of each treatment solution were tested for both German cockroaches and house flies. Details of this assay design and some results have previously been described.

[4] = system: house fly, Musca domestica; experiment: Choice-test arena bioassay (contact irritancy), house fly; type: in vivo; conditions: 300-second period
Procedure: as §1, §2, §3

[5] = system: antennectomized male German cockroaches; experiment: Choice test arena behavioral assay of antennectomized male cockroaches; type: in vivo, Blattella germanica; conditions: Annectomized male cockroaches
Procedure: Testing Procedure. Male cockroaches were antennectomized by using a razor blade to remove the antennae as close to the head as possible. The cockroaches were allowed to recover from the procedure for 24 hours before being exposed to the test compounds in the bioassay described in Example 1. Results.

[6] = 0.1% test solution vs solvent-treated half, male
[7] = 0.5% test solution vs solvent-treated half, male
[8] = 1% test solution vs solvent-treated half, male
[9] = 5% test solution vs solvent-treated half, male
[10] = dose 16 μg/cm^2, male B. germanica, in 300 seconds
[11] = dose 80 μg/cm^2, male B. germanica, in 300 seconds

## CC(C)=CCc1c2c(c3occ(-c4ccc(O)c(O)c4)c(=O)c3c1O)C=CC(C)(C)O2 [Pomiferin, pomiferin]
[1]; amount used 1% solution
  Mean Treated: 138 s
  Mean Untreated: 163 s
  % repellency: 8.3%

## CCCCCCOC(=O)CCCCC [Hexyl hexanoate]
[1]; amount used 1% solution
  Mean Treated: 142 s
  Mean Untreated: 158 s
  % repellency: 5.2%

## CC(C)=CCCC(C)CC=O (stereo not drawn) [Citronellal, citronellal, reference compound]
[2]; 60 min
  Average Percentage Repellency Over Time: 10%
[2]; 120 min
  Average Percentage Repellency Over Time: 19%
[2]; 360 min
  Average Percentage Repellency Over Time: 1%
[2]; Initial
  Average Percentage Repellency Over Time: 79%

## CC1=CC[C@@]23[C@@H]([C@@H]12)[C@H](C(C)C)CC[C@H]3C [α-Cubebene, alpha-cubebene]
[1]; amount used 0.1% solution
  Mean Treated: 118 s
  Mean Untreated: 182 s
  % repellency: 21%
[1]; amount used 0.5% solution
  Mean Treated: 99.4 s
  Mean Untreated: 211 s
  % repellency: 36%

## c1ccc2ccccc2c1 [Naphthalene, reference compound]
[1]; amount used 1% solution
  Mean Treated: 117 s
  Mean Untreated: 184 s
  % repellency: 22%

## CC1=COC(=O)[C@H]2[C@@H]1CC[C@@H]2C [Z,E-Nepetalactone, cis-trans nepetalactone]
[1]; [6]
  Mean Treated: 127 s
  Mean Untreated: 176 s
[1]; [7]
  Mean Treated: 128 s
  Mean Untreated: 174 s
[1]; [8]
  Mean Treated: 65.4 s
  Mean Untreated: 236 s
[1]; 5%
  times less time on the treated side as compared with the untreated side: ~5 times
[1]; [9]
  Mean Treated: 47.3 s
  Mean Untreated: 252 s
[1]; Non-antennectomized male cockroaches, 160 μg/cm^2
  Mean seconds on treated side ± SEM: 65.4 ± 11.8 s
[1]; dose 16 μg/cm^2
  % repellency: 16%
[1]; [10]
  Mean seconds on treated side ± SEM: 127 ± 11.2 a seconds
[1]; dose 80 μg/cm^2
  % repellency: 15%
[1]; [11]
  Mean seconds on treated side ± SEM: 128 ± 10.4 a seconds
[1]; dose 160 μg/cm^2
  % repellency: 57%
[1]; dose 160 μg/cm^2, male B. germanica, in 300 seconds
  Mean seconds on treated side ± SEM: 65.4 ± 11.8 b seconds
[1]; dose 800 μg/cm^2
  % repellency: 68%
[1]; dose 800 μg/cm^2, male B. germanica, in 300 seconds
  Mean seconds on treated side ± SEM: 47.3 ± 8.7 b seconds
[3]; application rate 16 μg/cm^2
  Percentage Repellency ± SEM: 16.1 ± 7.4a %
[3]; application rate 80 μg/cm^2
  Percentage Repellency ± SEM: 15.4 ± 6.9a %
[3]; application rate 160 μg/cm^2
  Percentage Repellency ± SEM: 56.8 ± 7.8b %
[3]; application rate 800 μg/cm^2
  Percentage Repellency ± SEM: 68.2 ± 5.7b %
[4]; application rate 80 μg/cm^2
  Percentage Repellency: 87.3%
[4]; application rate 160 μg/cm^2
  Percentage Repellency: 69.3%
[4]; application rate 800 μg/cm^2
  Percentage Repellency: 96.0%
[5]; 160 μg/cm^2
  Mean seconds on treated side ± SEM: 121 ± 10.6 s
  Mean seconds on untreated side: 180 ± 10.5 s

## CC(C)=CCc1c2c(c3occ(-c4ccc(O)cc4)c(=O)c3c1O)C=CC(C)(C)O2 [Osajin, osajin]
[1]; amount used 0.5% solution
  Mean Treated: 117 s
  Mean Untreated: 184 s
  % repellency: 22%
[1]; amount used 1% solution
  Mean Treated: 103 s
  Mean Untreated: 197 s
  % repellency: 31%

## CC1=COC(=O)C2[C@@H]1CC[C@@H]2C (stereo partly drawn) [E,Z-Nepetalactone, trans-cis nepetalactone]
[1]; [6]
  Mean Treated: 76.7 s
  Mean Untreated: 216 s
[1]; 0.5%
  times less time on the treated side as compared with the untreated side: ~8 times
[1]; [7]
  Mean Treated: 31.7 s
  Mean Untreated: 270 s
[1]; Non-antennectomized male cockroaches, 80 μg/cm^2
  Mean seconds on treated side ± SEM: 31.7 ± 5.2 s
[1]; dose 16 μg/cm^2
  % repellency: 46%
[1]; [10]
  Mean seconds on treated side ± SEM: 76.7 ± 13.7 b seconds
[1]; dose 80 μg/cm^2
  % repellency: 79%
[1]; [11]
  Mean seconds on treated side ± SEM: 31.7 ± 5.2 c seconds
[3]; application rate 16 μg/cm^2
  Percentage Repellency ± SEM: 46.4 ± 11.0b %
[3]; application rate 80 μg/cm^2
  Percentage Repellency ± SEM: 79.4 ± 3.5c %
[5]; 80 μg/cm^2
  Mean seconds on treated side ± SEM: 153 ± 15.2 s
  Mean seconds on untreated side: 149 ± 15.3 s
